Measurements as given in US6737383B1, “Herbicidal oxadiazolidines” (priority 1999, dated 2004).

What was measured:
blackgrass = assay: Test B pre/postemergence blackgrass; format: in vivo, Alopecurus myosuroides
Method in brief: (§1)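 Test chemicals in a non-phytotoxic solvent mixture with surfactant were sprayed preemergence onto planted seeds and postemergence onto plants 2 to 18 cm tall (1- to 4-leaf stage). After twelve to sixteen days in a greenhouse, injury was visually rated against untreated controls from 0 (no effect) to 10 (complete control).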

corn = assay: Test B pre/postemergence corn; format: in vivo, Zea mays
Method in brief: as §1

morningglory = assay: Test B pre/postemergence morningglory; format: in vivo, Ipomoea hederacea
Method in brief: as §1

wheat = assay: Test B pre/postemergence wheat; format: in vivo, Triticum aestivum
Method in brief: as §1

wild oat = assay: Test B pre/postemergence wild oat; format: in vivo, Avena fatua
Method in brief: as §1

duck salad = assay: Test B flood test duck salad; format: in vivo, Heteranthera limosa
Method in brief: (§2)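 Plants were grown to the 2-leaf stage before treatment with test chemical, then held in a greenhouse for twelve to sixteen days. Injury was visually rated against untreated controls on a 0–10 scale, where 0 is no effect and 10 is complete control.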

smallflower flatsedge = assay: Test B flood test smallflower flatsedge; format: in vivo, Cyperus difformis
Method in brief: as §2

sugar beet = assay: Test B pre/postemergence sugar beet; format: in vivo, Beta vulgaris
Method in brief: as §1

crabgrass = assay: Test B pre/postemergence crabgrass; format: in vivo, Digitaria sanguinalis
Method in brief: as §1

soybean = assay: Test B pre/postemergence soybean; format: in vivo, Glycine max
Method in brief: as §1

cocklebur = assay: Test B pre/postemergence cocklebur; format: in vivo, Xanthium strumarium
Method in brief: as §1

surinam grass = assay: Test B pre/postemergence surinam grass; format: in vivo, Brachiaria decumbens
Method in brief: as §1

giant foxtail = assay: Test B pre/postemergence giant foxtail; format: in vivo, Setaria faberii
Method in brief: as §1

velvetleaf = assay: Test B pre/postemergence velvetleaf; format: in vivo, Abutilon theophrasti
Method in brief: as §1

rape = assay: Test B pre/postemergence rape; format: in vivo, Brassica napus
Method in brief: as §1

rice = assay: Test B flood test rice; format: in vivo, Oryza sativa
Method in brief: as §2

pigweed = assay: Test B pre/postemergence pigweed; format: in vivo, Amaranthus retroflexus
Method in brief: as §1

bamyardgrass = assay: Test B flood test barnyardgrass; format: in vivo, Echinochloa crus-galli
Method in brief: as §2

bedstraw = assay: Test B pre/postemergence bedstraw; format: in vivo, Galium aparine
Method in brief: as §1

purple nutsedge = assay: Test B pre/postemergence purple nutsedge; format: in vivo, Cyperus rotundus
Method in brief: as §1

[1] = Preemergence, Rate 62 g/ha, scale of 0 to 10 where 0 is no effect and 10 is complete control
[2] = Preemergence, Rate 250 g/ha, scale of 0 to 10 where 0 is no effect and 10 is complete control
[3] = Preemergence, Rate 500 g/ha, scale of 0 to 10 where 0 is no effect and 10 is complete control
[4] = Rate 62 g/ha, Postemergence, scale of 0 to 10 where 0 is no effect and 10 is complete control
[5] = Rate 125 g/ha, Postemergence, scale 0 to 10
[6] = Rate 125 g/ha, Preemergence, scale of 0 to 10 where 0 is no effect and 10 is complete control
[7] = Rate 500 g/ha, Postemergence, scale 0 to 10, 0 no effect, 10 complete control
[8] = Rate 62 g/ha, headed Pre-emergence (flood test species), scale 0 to 10 (0 no effect, 10 complete control)
[9] = Rate 125 g/ha, Pre-emergence, flood test species, scale 0 to 10 where 0 is no effect and 10 is complete control
[10] = Rate 250 g/ha, Pre-emergence, flood-test species, scale 0 to 10, 0 is no effect, 10 is complete control
[11] = Rate 500 g/ha, Pre-emergence, flood test species, scale 0 to 10 (0 no effect, 10 complete control)

CCCCCCCCCCCCCCCCCCCn1c(=O)on(C(=O)N(c2ccc(F)cc2)C(C)C)c1=O [Compound 253]
0: Blackgrass plant response rating (blackgrass; [1]) | Blackgrass plant response rating (blackgrass; [2]) | Plant response rating, Blackgrass (blackgrass; [3]) | Blackgrass plant response rating (blackgrass; [4]) | Blackgrass plant response rating (blackgrass; [5]) | Blackgrass plant response rating (blackgrass; [6]) | Plant response rating (0 to 10; 0 is no effect, 10 is complete control), Blackgrass (blackgrass; Rate 250 g/ha, Postemergence) | Blackgrass plant response rating (blackgrass; [7]) | Corn plant response rating (corn; [1]) | Corn plant response rating (corn; [2]) | Plant response rating, Corn (corn; [3]) | Corn plant response rating (corn; [4]) | Corn plant response rating (corn; [5]) | Corn plant response rating (corn; [6]) | Plant response rating (0 to 10; 0 is no effect, 10 is complete control), Corn (corn; Rate 250 g/ha, Postemergence) | Corn plant response rating (corn; [7]) | Morningglory plant response rating (morningglory; [1]) | Morningglory plant response rating (morningglory; [2]) | Plant response rating, Morningglory (morningglory; [3]) | Morningglory plant response rating (morningglory; [6]) | Plant response rating (0 to 10; 0 is no effect, 10 is complete control), Morningglory (morningglory; Rate 250 g/ha, Postemergence) | Morningglory plant response rating (morningglory; [7]) | Wheat plant response rating (wheat; [1]) | Wheat plant response rating (wheat; [2]) | Plant response rating, Wheat (wheat; [3]) | Wheat plant response rating (wheat; [6]) | Wheat plant response rating (wheat; [7]) | Wild oats plant response rating (wild oat; [1]) | Wild oats plant response rating (wild oat; [2]) | Plant response rating, Wild oats (wild oat; [3]) | Wild oats plant response rating (wild oat; [6]) | Wild oats plant response rating (wild oat; [7]) | Ducksalad plant response rating (duck salad; [8]) | Ducksalad plant response rating (duck salad; [9]) | Ducksalad plant response rating (duck salad; [10]) | Ducksalad plant response rating (duck salad; [11]) | S. Flatsedge plant response rating (smallflower flatsedge; [8]) | S. Flatsedge plant response rating (smallflower flatsedge; [9]) | S. Flatsedge plant response rating (smallflower flatsedge; [10]) | S. Flatsedge plant response rating (smallflower flatsedge; [11]) | Sugarbeets plant response rating (sugar beet; [1]) | Sugarbeets plant response rating (sugar beet; [2]) | Plant response rating, Sugarbeets (sugar beet; [3]) | Sugarbeets plant response rating (sugar beet; [6]) | Sugarbeets plant response rating (sugar beet; [7]) | Crabgrass plant response rating (crabgrass; [1]) | Crabgrass plant response rating (crabgrass; [2]) | Plant response rating, Crabgrass (crabgrass; [3]) | Crabgrass plant response rating (crabgrass; [6]) | Plant response rating (0 to 10; 0 is no effect, 10 is complete control), Crabgrass (crabgrass; Rate 250 g/ha, Postemergence) | Crabgrass plant response rating (crabgrass; [7]) | Soybean plant response rating (soybean; [1]) | Soybean plant response rating (soybean; [2]) | Plant response rating, Soybean (soybean; [3]) | Soybean plant response rating (soybean; [6]) | Soybean plant response rating (soybean; [7]) | Cocklebur plant response rating (cocklebur; [1]) | Cocklebur plant response rating (cocklebur; [2]) | Plant response rating, Cocklebur (cocklebur; [3]) | Cocklebur plant response rating (cocklebur; [4]) | Cocklebur plant response rating (cocklebur; [5]) | Cocklebur plant response rating (cocklebur; [6]) | Plant response rating (0 to 10; 0 is no effect, 10 is complete control), Cocklebur (cocklebur; Rate 250 g/ha, Postemergence) | Cocklebur plant response rating (cocklebur; [7]) | B. signalgrass plant response rating (surinam grass; [1]) | B. signalgrass plant response rating (surinam grass; [2]) | Plant response rating, B. signalgrass (surinam grass; [3]) | B. signalgrass plant response rating (surinam grass; [4]) | B. signalgrass plant response rating (surinam grass; Rate 125 g/ha, Postemergence, scale 0 (no effect) to 10 (complete control)) | B. signalgrass plant response rating (surinam grass; [6]) | Plant response rating (0 to 10; 0 is no effect, 10 is complete control), B. signalgrass (surinam grass; Rate 250 g/ha, Postemergence) | B. signalgrass plant response rating (surinam grass; [7]) | Giant foxtail plant response rating (giant foxtail; [1]) | Giant foxtail plant response rating (giant foxtail; [2]) | Plant response rating, Giant foxtail (giant foxtail; [3]) | Giant foxtail plant response rating (giant foxtail; [6]) | Plant response rating (0 to 10; 0 is no effect, 10 is complete control), Giant foxtail (giant foxtail; Rate 250 g/ha, Postemergence) | Giant foxtail plant response rating (giant foxtail; [7]) | Velvetleaf plant response rating (velvetleaf; [1]) | Velvetleaf plant response rating (velvetleaf; [2]) | Plant response rating, Velvetleaf (velvetleaf; [3]) | Velvetleaf plant response rating (velvetleaf; [6]) | Velvetleaf plant response rating (velvetleaf; [7]) | Rape plant response rating (rape; [1]) | Rape plant response rating (rape; [2]) | Plant response rating, Rape (rape; [3]) | Rape plant response rating (rape; [6]) | Plant response rating (0 to 10; 0 is no effect, 10 is complete control), Rape (rape; Rate 250 g/ha, Postemergence) | Rape plant response rating (rape; [7]) | Rice plant response rating (rice; [8]) | Rice plant response rating (rice; [9]) | Rice plant response rating (rice; [10]) | Rice plant response rating (rice; [11]) | Redroot pigweed plant response rating (pigweed; [1]) | Redroot pigweed plant response rating (pigweed; [2]) | Plant response rating, Redroot pigweed (pigweed; [3]) | Redroot pigweed plant response rating (pigweed; [6]) | Plant response rating (0 to 10; 0 is no effect, 10 is complete control), Redroot pigweed (pigweed; Rate 250 g/ha, Postemergence) | Redroot pigweed plant response rating (pigweed; [7]) | Barnyardgrass plant response rating (bamyardgrass; [8]) | Barnyardgrass plant response rating (bamyardgrass; [9]) | Barnyardgrass plant response rating (bamyardgrass; [10]) | Barnyardgrass plant response rating (bamyardgrass; [11]) | Bedstraw plant response rating (bedstraw; [1]) | Bedstraw plant response rating (bedstraw; [2]) | Plant response rating, Bedstraw (bedstraw; [3]) | Bedstraw plant response rating (bedstraw; [4]) | Bedstraw plant response rating (bedstraw; [5]) | Bedstraw plant response rating (bedstraw; [6]) | Plant response rating (0 to 10; 0 is no effect, 10 is complete control), Bedstraw (bedstraw; Rate 250 g/ha, Postemergence) | Bedstraw plant response rating (bedstraw; [7]) | Plant response rating, Nutsedge (purple nutsedge; [3]) | Plant response rating (0 to 10; 0 is no effect, 10 is complete control), Nutsedge (purple nutsedge; Rate 250 g/ha, Postemergence) | Nutsedge plant response rating (purple nutsedge; [7])
